Measured values taken from ChEMBL document CHEMBL1150598, “Decipinin A and decipienolides A and B: new bioactive metabolites from the coprophilous fungus Podospora decipiens” (2002).
Activity calls are given as the source filed them. The calls are words filed in the database; no cut-off is given here.

Columns and labels:
Bacillus subtilis = assay: Antimicrobial activity against Bacillus subtilis ATCC 6051 at 200 ug/disk after 4 days by standard disk assay; type: functional; conditions: ATCC 6051, 96 h, read-out: IZ
Candida albicans = assay: Antimicrobial activity against Candida albicans ATCC 90029 after 4 days by standard disk assay; type: functional, organism-based
Sordaria fimicola = assay: Antimicrobial activity against Sordaria fimicola NRRL 6459 after 4 days by standard disk assay; type: functional, organism-based
Ascobolus = assay: Antimicrobial activity against Ascobolus furfuraceus NRRL 6460 after 4 days by standard disk assay; type: functional, organism-based
Fusarium verticillioides = assay: Antimicrobial activity against Fusarium verticillioides ATCC 24378 at 250 ug/disk after 4 days by standard disk assay; type: functional; conditions: ATCC 24378, 96 h, read-out: IZ

| SMILES | zone of inhibition at 200 µg/disc (Bacillus subtilis) [mm] | Activity (Candida albicans) | Activity (Sordaria fimicola) | Activity (Ascobolus) | zone of inhibition at 250 µg/disc (Fusarium verticillioides) [mm] |
| --- | --- | --- | --- | --- | --- |
| C=C1C(OC(=O)C(C)(C)C(C)O)CC2CC1C21CO[C@@]2(C[C@H](C)C(=O)O2)C1.C=C1C(OC(=O)C(C)(C)C(C)O)CC2CC1C21CO[C@]2(C[C@H](C)C(=O)O2)C1 (some centres undefined) [DECIPIENOLIDE A AND B] | 9 | inactive | inactive | inactive |  |
| CCC/C=C/C=C/C=C/C(=O)O[C@@H]1C2=CC(=O)C(C)(OC(C)=O)C(=O)C2=CO[C@]12O[C@H](C)CC[C@@H]2OC(=O)CCC(=O)O (some centres undefined) [DECIPININ A] | 9 | inactive | inactive | inactive | 22 |
